Like-named read-outs stand apart in the source and are kept apart here.
Tests used:
ShHTL7 = ShHTL7 (Striga hermonthica, UniProt A0A0M3PNA2); experiment: biochemical; assay type: binding; settings: Supplementary Table 7; binding affinities between ShHTL7 and agonists by SPR; read-out: KD/μM
Summary of the method: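 Surface plasmon resonance was run at 25 °C on ShHTL7 immobilized by amine coupling, using phosphate-buffered saline with 0.05% P20 and 0.5% DMSO. Each injection had 1 min association and 1 min dissociation, with a 50 μM screen followed by concentration series. KD was derived by kinetic analysis or steady-state affinity.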

P. aegyptiaca seeds = experiment: P. aegyptiaca seed germination assay; assay type: in vivo, Phelipanche aegyptiaca; settings: for EC50: Phelipanche aegyptiaca
Summary of the method: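 P. aegyptiaca seeds, sterilized in 1% NaClO, preconditioned in the dark at 25 °C for 4 days on glass-fiber discs, then given test compound in water with 1‰ acetone. Incubated dark at 25 °C for a week; germination scored under ×20 magnification, three biological repeats; rac-GR24 positive control.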

[1] = Chemical reactivity analysis (HPLC, methanol/PBS pH 7.4); assay type: physicochemical; settings: methanol/phosphate-buffered saline mixture; Supplementary Fig. 10 source data; methanol/PBS pH 7.4, 26 °C; read-out: half-life time (t1/2), source data average (converted)
Protocol: Chemical reactivity is an important factor in the bioactivity of natural and synthetic SLs.
One hundred twenty microliters of sample solution was added to a solution of PBS (10 mM, pH 7.4, 810 μL) and methanol (270 μL). The solution was stirred vigorously for 30 s and then transferred to HPLC vial, and the vial was stored at 26 ± 1 °C. […] The analytical column was Extend-C18 (4.6 mm × 150 mm × 5 μm). The mobile phases were CH3CN and H2O (containing 0.1% HCO2H), VCH3CN:VH2O = 50:50, with a flow rate of 1 mL/min, and an injection volume of 5 μL. The percentage of remaining compounds in the solution was calculated from the peak area. The half-life times (t1/2) of samples were calculated.

[2] = tested on: ShHTLs (10 HTL proteins in S. hermonthica); experiment: YLG-based competition assay on HTL proteins of S. hermonthica; assay type: biochemical, Striga hermonthica; settings: Supplementary Fig. 27
Source text: In P. aegyptiaca, 5 KAI2s have been proposed as the SL receptors for the regulation of seed germination. […] The high sequence similarity may explain the consistency of these compounds in inducing germination in both S. hermonthica and P. aegyptiaca.
The excitation and emission wavelengths of YLG are 480 and 520 nm, respectively. We used a fluorescence spectrophotometer (CARY Eclipse) to detect the fluorescence intensity change of YLG during the enzymatic hydrolysis assay process. All the testing compounds and YLG were dissolved in DMSO and prepared as stock solutions just before use. […] The changes of fluorescence at 520 nm of each well were recorded every 1 min for 30 min. Using the reaction mixture without adding enzyme and tested compounds as the background control. After subtracting the background hydrolysis, a linear fluorescence increase in 8 min was used for further inspection. The IC50 values were determined via fitting relative inhibition percentages with the varying concentrations of compounds in Microsoft Excel.
Supplementary Fig. 27. Binding of compounds 4a, (R)- and (S)-4a, and 4g-i to the HTL proteins in S. hermonthica and KAI2 protein homologs in P. aegyptiaca. In the competitive inhibitory activity assay, YLG (3 µM) was used as the fluorogenic substrate. Error bar indicates SD (n = 3 biologically independent experiments).
(1 picture or pasted object on this page, not shown here)

[3] = source data of Fig. 2c and Supplementary Fig. 8b, average of 3, read-out: P. aegyptiaca germination EC50 values, source data average (converted)
[4] = ShHTL2, YLG competition, read-out: IC50, replicate 1
[5] = ShHTL2, YLG competition, read-out: IC50, replicate 2
[6] = ShHTL2, YLG competition, read-out: IC50, replicate 3
[7] = ShHTL2, average of 3 replicates, read-out: IC50, average
[8] = ShHTL3, YLG competition, read-out: IC50, replicate 1
[9] = ShHTL3, YLG competition, read-out: IC50, replicate 2
[10] = ShHTL3, YLG competition, read-out: IC50, replicate 3
[11] = ShHTL3, average of 3 replicates, read-out: IC50, average
[12] = ShHTL4, YLG competition, read-out: IC50, replicate 1
[13] = ShHTL4, YLG competition, read-out: IC50, replicate 2
[14] = ShHTL4, YLG competition, read-out: IC50, replicate 3
[15] = ShHTL4, average of 3 replicates, read-out: IC50, average
[16] = ShHTL5, YLG competition, read-out: IC50, replicate 1
[17] = ShHTL5, YLG competition, read-out: IC50, replicate 2
[18] = ShHTL5, YLG competition, read-out: IC50, replicate 3
[19] = ShHTL5, average of 3 replicates, read-out: IC50, average
[20] = ShHTL6, YLG competition, read-out: IC50, replicate 1
[21] = ShHTL6, YLG competition, read-out: IC50, replicate 2
[22] = ShHTL6, YLG competition, read-out: IC50, replicate 3
[23] = ShHTL6, average of 3 replicates, read-out: IC50, average
[24] = ShHTL8, YLG competition, read-out: IC50, replicate 1
[25] = ShHTL8, YLG competition, read-out: IC50, replicate 2
[26] = ShHTL8, YLG competition, read-out: IC50, replicate 3
[27] = ShHTL8, average of 3 replicates, read-out: IC50, average
[28] = ShHTL9, YLG competition, read-out: IC50, replicate 1
[29] = ShHTL9, YLG competition, read-out: IC50, replicate 2
[30] = ShHTL9, YLG competition, read-out: IC50, replicate 3
[31] = ShHTL9, average of 3 replicates, read-out: IC50, average
[32] = ShHTL10, YLG competition, read-out: IC50, replicate 1
[33] = ShHTL10, YLG competition, read-out: IC50, replicate 2
[34] = ShHTL10, YLG competition, read-out: IC50, replicate 3
[35] = ShHTL10, average of 3 replicates, read-out: IC50, average
[36] = ShHTL11, YLG competition, read-out: IC50, replicate 1
[37] = ShHTL11, YLG competition, read-out: IC50, replicate 2
[38] = ShHTL11, YLG competition, read-out: IC50, replicate 3
[39] = ShHTL11, average of 3 replicates, read-out: IC50, average

ShHTL7, sequence (A0A0M3PNA2 entry or part of it): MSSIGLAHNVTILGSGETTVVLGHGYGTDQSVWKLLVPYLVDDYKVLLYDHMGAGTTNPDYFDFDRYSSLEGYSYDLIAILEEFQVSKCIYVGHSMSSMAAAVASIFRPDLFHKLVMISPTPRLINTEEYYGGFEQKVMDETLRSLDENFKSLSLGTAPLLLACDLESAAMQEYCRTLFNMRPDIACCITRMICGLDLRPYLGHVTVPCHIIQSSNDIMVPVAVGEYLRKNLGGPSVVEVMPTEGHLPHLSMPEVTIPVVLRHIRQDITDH

CC1=C[C@@H](OC(=O)N2CCN(C(=O)COc3ccc(Br)cc3C)CC2)OC1=O [(R)-4a]
Kd (ShHTL7): 1.69 ± 0.04 µM | EC50 (P. aegyptiaca seeds; [3]): 1270 nM | half-life at 0.5 mM [1]: 6.99 h | IC50 [2, 4]: 69.7 µM | IC50 [2, 5]: 64.8 µM | IC50 [2, 6]: 63.8 µM | IC50 [2, 7]: 66.1 µM | IC50 [2, 8]: 62.1 µM | IC50 [2, 9]: 76.7 µM | IC50 [2, 10]: 63.2 µM | IC50 [2, 11]: 67.3 µM | IC50 [2, 12]: 22.9 µM | IC50 [2, 13]: 19.8 µM | IC50 [2, 14]: 20.3 µM | IC50 [2, 15]: 21 µM | IC50 [2, 16]: 48.9 µM | IC50 [2, 17]: 46.9 µM | IC50 [2, 18]: 35.9 µM | IC50 [2, 19]: 43.9 µM | IC50 [2, 20]: > 100 µM | IC50 [2, 21]: > 100 µM | IC50 [2, 22]: > 100 µM | IC50 [2, 23]: > 100 µM | IC50 [2, 24]: 58.4 µM | IC50 [2, 25]: 53.3 µM | IC50 [2, 26]: 69.9 µM | IC50 [2, 27]: 60.5 µM | IC50 [2, 28]: 50.2 µM | IC50 [2, 29]: 43.9 µM | IC50 [2, 30]: 47.8 µM | IC50 [2, 31]: 47.3 µM | IC50 [2, 32]: 59.5 µM | IC50 [2, 33]: 43.4 µM | IC50 [2, 34]: 54.6 µM | IC50 [2, 35]: 52.5 µM | IC50 [2, 36]: > 100 µM | IC50 [2, 37]: > 100 µM | IC50 [2, 38]: > 100 µM | IC50 [2, 39]: > 100 µM

CC1=C[C@H](OC(=O)N2CCN(C(=O)COc3ccc(Br)cc3C)CC2)OC1=O [(S)-4a]
Kd (ShHTL7): 0.79 ± 0.06 µM | EC50 (P. aegyptiaca seeds; read-out: EC50, P. aegyptiaca seed germination): 0.0339 nM | EC50 (P. aegyptiaca seeds; [3]): 0.021 nM | fold improved P. aegyptiaca seed germination activity, (S)-4a versus (R)-4a (P. aegyptiaca seeds; in vivo): over 40,000 fold | half-life at 0.5 mM [1]: 7.71 h | IC50 [2, 4]: 44 µM | IC50 [2, 5]: 49.8 µM | IC50 [2, 6]: 48.4 µM | IC50 [2, 7]: 47.4 µM | IC50 [2, 8]: 16.8 µM | IC50 [2, 9]: 15.4 µM | IC50 [2, 10]: 14.7 µM | IC50 [2, 11]: 15.7 µM | IC50 [2, 12]: 2.17 µM | IC50 [2, 13]: 2.91 µM | IC50 [2, 14]: 2.59 µM | IC50 [2, 15]: 2.56 µM | IC50 [2, 16]: 5.38 µM | IC50 [2, 17]: 6.82 µM | IC50 [2, 18]: 5.43 µM | IC50 [2, 19]: 5.88 µM | IC50 [2, 20]: 9.92 µM | IC50 [2, 21]: 6.62 µM | IC50 [2, 22]: 7.62 µM | IC50 [2, 23]: 8.05 µM | IC50 [2, 24]: 12 µM | IC50 [2, 25]: 7.84 µM | IC50 [2, 26]: 5.8 µM | IC50 [2, 27]: 8.54 µM | IC50 [2, 28]: 10.9 µM | IC50 [2, 29]: 19 µM | IC50 [2, 30]: 16.2 µM | IC50 [2, 31]: 15.4 µM | IC50 [2, 32]: 11.7 µM | IC50 [2, 33]: 11.6 µM | IC50 [2, 34]: 12.8 µM | IC50 [2, 35]: 12 µM | IC50 [2, 36]: 6.48 µM | IC50 [2, 37]: 5.76 µM | IC50 [2, 38]: 3.77 µM | IC50 [2, 39]: 5.34 µM

Reference: paper PMC9271048, “Probing strigolactone perception mechanisms with rationally designed small-molecule agonists stimulating germination of root parasitic weeds” (Nature Communications, 2022)
